Measurements published in patent US20210369720A1, “SYNERGISTIC COMPOSITION HAVING NEUROPROTECTIVE PROPERTIES AND METHODS OF USE THEREOF” (Rutgers, The State University of New Jersey, priority 2018, published 2021).

System: Iba1
Assay: Immunohistochemical staining of Iba-1 in the striatum, Syn^Tg mice
Assay type: in vivo
Details: EHT 12 mg/kg/day and/or caffeine 50 mg/kg/day until six months of age
From the text: Neuroinflammation is one of the neuropathological features of PD and models of α-synucleinopathy including Syn^Tg mice (Lee K W, et al. (2011) Enhanced phosphatase activity attenuates alpha-synucleinopathy in a mouse model. J Neurosci 31(19):6963-6971).
Thy1-α-synuclein transgenic mice (Syn^Tg) on BDF1 background overexpressing human wild-type α-synuclein under the control of the Thy1 promoter were maintained by mating heterozygous transgenic females with WT BDF1 males (Rockenstein E, et al. (2002) Differential neuropathological alterations in transgenic mice expressing alpha-synuclein from the platelet-derived growth factor and Thy-1 promoters. J Neurosci Res 68(5):568-578). BDF1 mice (mixed C57BL/6-DBA/2) were generated every three months by mating female C57BL/6 (The Jackson Laboratory) and male DBA/2 mice (Charles River). Experiments were performed with male transgenic mice and their WT littermates. […] Wild-type littermates received regular water and control chow. […] Mice were weighed and their food and water intake was quantified weekly. […]
Vectastain elite ABC kit (Vector Laboratories, Burlingame, Calif.) and 3,3′-diaminobenzidine (Sigma-Aldrich) were used for amplifying and color development. […] For other stains, the whole microscopic field was analyzed. For p-α-Syn stains in the cortex, four matching regions in each of two sections per animal were counted.

CCCCCCCCCCCCCCCCCCCC(=O)NCCc1c[nH]c2ccc(O)cc12 [EHT, eicosanoyl-5-hydroxytryptamide] was tested, and the “microglial activation (Iba1) in the striatum” value was “partially but insignificantly attenuated”.
